The values below are quoted from earlier work in patent US20170262578A1, “SYSTEM, METHOD AND SOFTWARE FOR ANALYSIS OF INTRACELLULAR SIGNALING PATHWAY ACTIVATION USING TRANSCRIPTOMIC DATA” (PATHWAY PHARMACEUTICALS LTD, priority 2015, published 2017).

Where two headings read alike, the source gives them in different places.

Data set [1] relates to Advanced Renal Cell Carcinoma. The conditions noted are these: for Median overall response duration: 11 / 19 / 20 participants; for Median progression free survival / Median time to treatment failure: 207 / 209 / 210 participants; for Median overall survival: 207 Interferon-α / 209 Temsirolimus / 210 combination participants; for Clinical benefit (complete, partial response or stable disease) / Complete or partial response: from 207 / 209 / 210 participants.

Data set [2] deals with Locally Advanced and/or Metastatic Renal Cell Carcinoma. To be noted: 68 from 186 Pazopanib / 73 from 177 Sunitinib participants.
For data set [3], the system named is Locally Recurrent or Metastatic Clear-Cell Renal Cell Carcinoma. The conditions noted are these: 74 from 225 participants.
Data set [4] concerns Locally Advanced and/or Metastatic Renal Cell Carcinoma. To be noted: 230 from 554 Pazopanib / 224 from 548 Sunitinib participants.
Data set [5] has the same test system. The conditions noted are these: 76 from 290 participants.
The subject of data set [6] is Metastatic Renal Cell Cancer. To be noted: for Serious adverse events: 108 from 359 Axitinib / 110 from 355 Sorafenib participants.
The test system of data set [7] is Metastatic Renal Cell Carcinoma (RCC).
Data set [8] deals with Unresectable and/or Metastatic Renal Cell Carcinoma.
The subject of data set [9] is Renal Cell Carcinoma.
The subject of data set [10] is Unresectable and/or Metastatic Renal Cell Carcinoma. This is another data set of the same source.
For data set [11], the system named is Unresectable and/or Metastatic Renal Cell Cancer.
Data set [12] concerns Metastatic or Unresectable Renal Cell Cancer (RCC).
Data set [13] concerns Renal Cell Carcinoma. The conditions noted are these: 28 from 51 participants.
Data set [14] relates to Cytokine-Refractory Metastatic Renal Cell Carcinoma. The conditions noted are these: 46 from 106 participants.
Data set [15] relates to Advanced (First-Line) Renal Cell Cancer. The conditions noted are these: 45 of 119 participants.
Data set [16] deals with Cytokine-Refractory Metastatic Renal Cell Carcinoma.
Data set [17] relates to Metastatic Renal Cell Cancer.
Data set [18] relates to unresectable or metastatic renal cell carcinoma.
The test system of data set [19] is Metastatic Carcinoma of the Kidney Which Has Progressed on VEGF Receptor Tyrosine Kinase Inhibitor. The conditions noted are these: with Best Supportive Care.
[20] abbreviates: first intervention period, 5 / 8 participants.
The mark [21] stands for this setting: first intervention period, from 97 / 92 participants.

Consider Interferon-α, for which, in [1], the “Median overall response duration” value is listed as 7.4 months, the “Median progression free survival” value is on record as 3.2 months, the “Median time to treatment failure” value is on record as 1.9 months and the Median overall survival is 7.3 months. Further, in data set [1], the “Clinical benefit (complete, partial response or stable disease)” value was 16.4% and the “Complete or partial response” value is recorded as 5.3%. The Serious adverse events in [1] (in vivo) is recorded as 49.5%.

For the molecule `Cc1ccc(Nc2nccc(N(C)c3ccc4c(C)n(C)nc4c3)n2)cc1S(N)(=O)=O` [Pazopanib], the Serious adverse events in data set [2] is 36.56%; in data set [3] it was 32.89%; in [4] it was 41.52%; in data set [5] it was 26.21%.

As to `CNC(=O)c1cc(Oc2ccc(NC(=O)Nc3ccc(Cl)c(C(F)(F)F)c3)cc2)ccn1` [Sorafenib], the Serious adverse events in data set [6] was 30.99%; in data set [7] (4 from 47 participants), 8.51%; in data set [8] (12 from 39 participants), 30.77%; with Renal Cell Carcinoma [9] (34 of 95 participants), 35.79%; in data set [10] (first intervention period, 47 from 97 / 36 from 90 participants), 48.45%; in data set [10] (second intervention period, 14 from 49 / 30 from 61 participants) it was 28.57%. Besides, the Serious adverse events in data set [11] (154 from 451 participants) is given as 34.15%. Moreover, the “Median progression free survival” value in data set [6] (361 Axitinib / 362 Sorafenib participants) was 4.7 months; in [8] (39 participants), 5.5 months; with Renal Cell Carcinoma [9] (94 participants), 386 days; in data set [11] (384 participants), 167 days. Moreover, the “Duration of overall response (tumor burden reduction)” value in [7] (14 participants) is recorded as 7.1 months. Also, the Median overall survival in [7] (47 participants) is recorded as 16 months; in [8] (39 participants), 7.8 months; in data set [11] (451 participants), 542 days. Moreover, the “Median time to progression” value is recorded as 4.4 months in [7] (47 participants) and 5.5 months in [8] (39 participants). For the same molecule, the “Reduction in tumor burden equal to or larger than 5%” value in data set [7] (at 8 weeks (2 cycles of treatment), % from 47 participants) is 30%. In addition, the “Median overall response duration” value in data set [8] (5 participants) was 7.4 months. The “Median time to objective response” value in data set [8] (5 participants) is given as 1.4 months. Further, the partial response is on record as 5 participants in data set [8] (from 39 participants), 25 participants with Renal Cell Carcinoma [9] (among 94 participants) and 2.1% in data set [11] (from 335 participants). Moreover, the progressive disease in data set [8] (from 39 participants) is reported as 6 participants. For the same molecule, the stable disease is given as 27 participants in data set [8] (from 39 participants), 64 participants in the data set on Renal Cell Carcinoma [9] (among 94 participants) and 77.9% in [11] (from 335 participants). Moreover, the “Median duration of overall response” value in the data set on Renal Cell Carcinoma [9] (94 participants) is recorded as 419 days. In addition, in the data set with Renal Cell Carcinoma [9] (94 participants), the “Median time to response” value is 84 days. Moreover, the “Number of participants who died” value with Renal Cell Carcinoma [9] (from start of treatment of the first subject until 45 months later, from 94 participants) was 43 participants. Also, the “Median duration of response according to the Independent Radiological Review” value in [10] (setting [20]) was 7.5 months. For the same molecule, the “Median time to response according to the Independent Radiological Review” value in data set [10] (setting [20]) was 1.8 months. In [10] (setting [21]), the “partial response (Independent Central Review)” value was 5 participants. Also, the “stable disease (Independent Central Review)” value in [10] (setting [21]) is 72 participants. Moreover, the “Median progression-free survival according to the Investigator Assessment” value in [10] (second intervention period) was 4.5 months. The “stable disease (Investigator Assessment)” value in [10] (second intervention period, from 49 / 61 participants) was 25 participants.

Regarding `CO[C@H]1C[C@@H]2CC[C@@H](C)[C@@](O)(O2)C(=O)C(=O)N2CCCC[C@H]2C(=O)O[C@H]([C@H](C)C[C@@H]2CC[C@@H](OC(=O)C(C)(CO)CO)[C@H](OC)C2)CC(=O)[C@H](C)/C=C(\C)[C@@H](O)[C@@H](OC)C(=O)[C@H](C)C[C@H](C)/C=C/C=C/C=C/1C` [Temsirolimus], in data set [1], the “Median overall response duration” value is recorded as 11.1 months, the “Median progression free survival” value is 5.6 months, the “Median time to treatment failure” value is 3.7 months and the Median overall survival is given as 10.9 months. In addition, in [1], the “Clinical benefit (complete, partial response or stable disease)” value is given as 34% and the “Complete or partial response” value is on record as 9.1%. The Serious adverse events in data set [1] (99 from 200 / 82 from 208 / 122 from 208 participants) was 39.42%.

Consider `CNC(=O)c1cc(Oc2ccc(NC(=O)Nc3ccc(Cl)c(C(F)(F)F)c3)c(F)c2)ccn1` [Regorafenib], for which the “Median overall response duration” value in data set [12] (19 participants) was 428 days. Moreover, in data set [12] (25 participants), the “Median duration of stable disease” value is given as 119 days. For the same molecule, in data set [12] (30 from 49 participants), the Serious adverse events is given as 61.22%. Besides, the “Median progression free survival” value in data set [12] (49 participants) is listed as 335 days. In data set [12] (among 48 participants), the partial response is 39.6% and the stable disease was 41.7%.

With `CCN(CC)CCNC(=O)c1c(C)[nH]c(/C=C2\C(=O)Nc3ccc(F)cc32)c1C` [Sunitinib], the Serious adverse events in data set [2] is recorded as 41.24%; in the data set with Renal Cell Carcinoma [13] it was 54.90%; in [4], 40.88%; in [14] it was 43.40%; in data set [15] it was 37.82%; in data set [16] (AM dose group, out of 54 participants) it was 21 participants. The Serious adverse events is reported as 20 participants in data set [16] (PM dose group, from 53 participants); 37.76% in data set [17] (Sunitinib 37.5 mg group, 54 from 143 participants); 34.25% in [17] (Sunitinib 50 mg group, 50 from 146 participants).

Regarding `CN1CC[C@H](c2c(O)cc(O)c3c(=O)cc(-c4ccccc4Cl)oc23)[C@H](O)C1` [Flavopiridol], the stable disease in data set [18] (14 among 34 participants) was 41%. Besides, in [18] (34 participants), the “CR+PR” value is 12%, the Median overall survival is given as 9 months and the “probability of not failing treatment by 6 months” value is 21%. In data set [18] (among 34 participants), the complete response is recorded as 1 participants and the partial response is reported as 3 participants. Besides, the Toxicity of treatment result in [18] (in vivo) was “moderate”.

In the case of `CO[C@H]1C[C@@H]2CC[C@@H](C)[C@@](O)(O2)C(=O)C(=O)N2CCCC[C@H]2C(=O)O[C@H]([C@H](C)C[C@@H]2CC[C@@H](OCCO)[C@H](OC)C2)CC(=O)[C@H](C)/C=C(\C)[C@@H](O)[C@@H](OC)C(=O)[C@H](C)C[C@H](C)/C=C/C=C/C=C/1C` [RAD001, Everolimus], the Serious adverse events in [19] (135 from 274 participants) is 49.27%. Moreover, in data set [19] (277 participants), the Median overall survival is listed as 13.57 months and the “Median progression free survival” value was 4.9 months. Moreover, the “Complete or partial response” value in data set [19] (from 277 participants) was 1.8%.

On to `CNC(=O)c1ccccc1Sc1ccc2c(/C=C/c3ccccn3)n[nH]c2c1` [Axitinib], for which, in [6], the Serious adverse events is reported as 30.08%.
